Data taken from patent publication US6951878B2, “Benzo[b]thiophenyl or tetrahydro-benzo[b]thiophenyl modulators of protein tyrosine phosphatases (PTPases)” (Novo Nordisk A/S, priority 1998, dated 2005).
Where a name gives a salt, the structure may show the parent alone.

Target: T1, truncated form of PTP1B (corresponding to the first 321 amino acids) (Homo sapiens, UniProt P18031)
T1 construct: a truncated form of PTP1B (corresponding to the first 321 amino acids); made in house; host or cells: E. coli
T1 sequence (P18031 1-321): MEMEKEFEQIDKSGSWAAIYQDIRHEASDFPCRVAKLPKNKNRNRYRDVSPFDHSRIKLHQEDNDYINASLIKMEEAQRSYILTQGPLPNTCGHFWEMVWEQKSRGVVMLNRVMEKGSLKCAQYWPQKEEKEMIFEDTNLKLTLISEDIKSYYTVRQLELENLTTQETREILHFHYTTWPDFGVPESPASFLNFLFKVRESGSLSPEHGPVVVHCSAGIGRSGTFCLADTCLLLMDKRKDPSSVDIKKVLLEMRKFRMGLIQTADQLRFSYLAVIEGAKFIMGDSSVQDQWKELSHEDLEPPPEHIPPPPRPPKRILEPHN
Experiment: Inhibition of PTP1B, p-nitrophenyl phosphate substrate
Assay type: biochemical
Conditions: substrate p-nitrophenyl phosphate 0.16 to 10 mM; 100 mM sodium acetate pH 5.5; 25° C. for 60 minutes; absorbance at 405 nm
Procedure: The assay conditions are as follows. Appropriate concentrations of the compounds of the invention are added to the reaction mixtures containing different concentrations of the substrate, p-nitrophenyl phosphate (range: 0.16 to 10 mM—final assay concentration). The buffer used was 100 mM sodium acetate pH 5.5, 50 mM sodium chloride, 0.1% (w/v) bovine serum albumin and 5 mM dithiothreitol (total volume […]). The reaction was started by addition of the enzyme and carried out in microtiter plates at 25° C. for 60 minutes. The reactions are stopped by addition of NaOH. […] The data are analyzed using nonlinear regression fit to classical Michaelis Menten enzyme kinetic models. Inhibition is expressed as Ki values in μM.

Row | SMILES | Ki [µM]
1 | O=C(O)C(=O)Nc1sc2c(c1C(=O)O)CCN(C(=O)c1ccccc1)C2 [Example 1, 6-Benzoyl-2-(oxalyl-amino)-4,5,6,7-tetrahydro-thien[2,3-c]pyridine-3-carboxylic acid, Mono Sodium Salt] | 51
2 | O=C(O)C(=O)Nc1sc2c(c1C(=O)O)CCN(CCc1ccccc1)C2 [Example 6] | 3
